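Method: 48-hour compound exposure of cells in 96-well plates, five concentrations, linear interpolation of endpoints. GI50 = concentration required for 50% inhibition of growth. TGI: total growth inhibition.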
Experiments:
Assay in all cases: DTP human tumour cell line panel, 48 h
[1] = test system: SK-MEL-2 melanoma
[2] = test system: CCRF-CEM leukemia
[3] = test system: OVCAR-4 ovarian
[4] = test system: HCT-116 colon
[5] = test system: OVCAR-5 ovarian
[6] = test system: SK-MEL-5 melanoma
[7] = test system: SF-539 CNS
[8] = test system: MCF7 breast
[9] = test system: SR leukemia
[10] = test system: HOP-62 NSCLC
[11] = test system: A498 renal
[12] = test system: IGROV1 ovarian
[13] = test system: SW-620 colon
[14] = test system: 786-0 renal
[15] = test system: OVCAR-3 ovarian
[16] = test system: RXF 393 renal
[17] = test system: K-562 leukemia
[18] = test system: U251 CNS
[19] = test system: SNB-75 CNS
[20] = test system: PC-3 prostate
[21] = test system: UACC-62 melanoma
[22] = test system: MOLT-4 leukemia
[23] = test system: NCI-H23 lung
[24] = test system: MALME-3M melanoma
[25] = test system: NCI-H522 lung
[26] = test system: RPMI-8226 leukemia
[27] = test system: HL-60(TB) leukemia
[28] = test system: SF-295 CNS
[29] = test system: EKVX NSCLC
[30] = test system: SN12C renal
[31] = test system: COLO 205 colon
[32] = test system: LOX IMVI melanoma
[33] = test system: HCT-15 colon
[34] = test system: UACC-257 melanoma
[35] = test system: SK-MEL-28 melanoma
[36] = test system: BT-549 breast
[37] = test system: NCI-H460 lung
[38] = test system: T-47D breast
[39] = test system: MDA-MB-231 breast
[40] = test system: HT29 colon
[41] = test system: ACHN renal
[42] = test system: SF-268 CNS
[43] = test system: HOP-92 NSCLC
[44] = test system: MDA-MB-435
[45] = test system: OVCAR-8 ovarian
[46] = test system: UO-31 renal
[47] = test system: HS 578T breast
[48] = test system: SNB-19 CNS
[49] = test system: HCC-2998 colon
[50] = test system: M14 melanoma
[51] = test system: TK-10 renal
[52] = test system: A549 NSCLC
[53] = test system: NCI-H226 lung
[54] = test system: CAKI-1 renal
[55] = test system: SK-OV-3 ovarian
[56] = test system: NCI/ADR-RES ovarian
[57] = test system: KM12 colon
[58] = test system: DU-145 prostate

Question: What does the source list for `Cc1cc(Cl)cc2c(N=Nc3ccc(S(N)(=O)=O)cc3)c(O)[nH]c12`?
Answer: GI50 [1]: > 25 µM; TGI [1]: > 25 µM; GI50 [2]: > 25 µM; TGI [2]: > 25 µM; GI50 [3]: > 25 µM; TGI [3]: > 25 µM; GI50 [4]: > 25 µM; TGI [4]: > 25 µM; GI50 [5]: > 25 µM; TGI [5]: > 25 µM; GI50 [6]: > 25 µM; TGI [6]: > 25 µM; GI50 [7]: > 25 µM; TGI [7]: > 25 µM; GI50 [8]: > 25 µM; TGI [8]: > 25 µM; GI50 [9]: > 25 µM; TGI [9]: > 25 µM; GI50 [10]: > 25 µM; TGI [10]: > 25 µM; GI50 [11]: > 25 µM; TGI [11]: > 25 µM; GI50 [12]: > 25 µM; TGI [12]: > 25 µM; GI50 [13]: > 25 µM; TGI [13]: > 25 µM; GI50 [14]: > 25 µM; TGI [14]: > 25 µM; GI50 [15]: > 25 µM; TGI [15]: > 25 µM; GI50 [16]: > 14.5 µM; TGI [16]: > 25 µM; GI50 [17]: > 25 µM; TGI [17]: > 25 µM; GI50 [18]: > 25 µM; TGI [18]: > 25 µM; GI50 [19]: > 15.6 µM; TGI [19]: > 25 µM; GI50 [20]: > 25 µM; TGI [20]: > 25 µM; GI50 [21]: > 25 µM; TGI [21]: > 25 µM; GI50 [22]: > 25 µM; TGI [22]: > 25 µM; GI50 [23]: > 25 µM; TGI [23]: > 25 µM; GI50 [24]: > 25 µM; TGI [24]: > 25 µM; GI50 [25]: > 25 µM; TGI [25]: > 25 µM; GI50 [26]: > 25 µM; TGI [26]: > 25 µM; GI50 [27]: > 25 µM; TGI [27]: > 25 µM; GI50 [28]: > 25 µM; TGI [28]: > 25 µM; GI50 [29]: > 25 µM; TGI [29]: > 25 µM; GI50 [30]: > 25 µM; TGI [30]: > 25 µM; GI50 [31]: > 25 µM; TGI [31]: > 25 µM; GI50 [32]: > 25 µM; TGI [32]: > 25 µM; GI50 [33]: > 25 µM; TGI [33]: > 25 µM; GI50 [34]: > 25 µM; TGI [34]: > 25 µM; GI50 [35]: > 25 µM; TGI [35]: > 25 µM; GI50 [36]: > 25 µM; TGI [36]: > 25 µM; GI50 [37]: > 25 µM; TGI [37]: > 25 µM; GI50 [38]: > 25 µM; TGI [38]: > 25 µM; GI50 [39]: > 25 µM; TGI [39]: > 25 µM; GI50 [40]: > 25 µM; TGI [40]: > 25 µM; GI50 [41]: > 25 µM; TGI [41]: > 25 µM; GI50 [42]: > 25 µM; TGI [42]: > 25 µM; GI50 [43]: > 25 µM; TGI [43]: > 25 µM; GI50 [44]: > 25 µM; TGI [44]: > 25 µM; GI50 [45]: > 25 µM; TGI [45]: > 25 µM; GI50 [46]: > 25 µM; TGI [46]: > 25 µM; GI50 [47]: > 25 µM; TGI [47]: > 25 µM; GI50 [48]: > 25 µM; TGI [48]: > 25 µM; GI50 [49]: > 25 µM; TGI [49]: > 25 µM; GI50 [50]: > 25 µM; TGI [50]: > 25 µM; GI50 [51]: > 25 µM; TGI [51]: > 25 µM; GI50 [52]: > 25 µM; TGI [52]: > 25 µM; GI50 [53]: > 25 µM; TGI [53]: > 25 µM; GI50 [54]: > 25 µM; TGI [54]: > 25 µM; GI50 [55]: > 25 µM; TGI [55]: > 25 µM; GI50 [56]: > 25 µM; TGI [56]: > 25 µM; GI50 [57]: > 25 µM; TGI [57]: > 25 µM; GI50 [58]: > 25 µM; TGI [58]: > 25 µM

Question: For `O=C1C(Cl)=C(Sc2nnc3c4ccccc4c4ccccc4c3n2)C(=O)c2ccccc21`, which TGI [1] is on record?
Answer: Its TGI is 34.8 µM.

Question: What about the TGI [2] of the same compound?
Answer: Its TGI is 14.5 µM.

Question: And the TGI [3]?
Answer: The TGI was 29.2 µM.

Question: What about the TGI [4] of the same compound?
Answer: The TGI was 33.3 µM.

Question: What about the TGI [5] of the same compound?
Answer: The TGI was 45.3 µM.

Question: And the TGI [6]?
Answer: The TGI was 22.4 µM.

Question: And the TGI [7]?
Answer: The TGI was 32.4 µM.

Question: And the TGI [8]?
Answer: The TGI was 28.2 µM.

Question: And the TGI [9]?
Answer: The TGI was over 56 µM.

Question: And the TGI [10]?
Answer: The TGI was 32 µM.

Question: And the TGI [11]?
Answer: Its TGI is 37.2 µM.

Question: And the TGI [12]?
Answer: Its TGI is 21.2 µM.

Question: What about the TGI [13] of the same compound?
Answer: Its TGI is over 65.1 µM.

Question: And the TGI [14]?
Answer: The TGI was 33.9 µM.

Question: And the TGI [15]?
Answer: The TGI was 27.2 µM.

Question: What about the TGI [16] of the same compound?
Answer: The TGI was 32 µM.

Question: What about the TGI [17] of the same compound?
Answer: The TGI was over 59.3 µM.

Question: What about the TGI [18] of the same compound?
Answer: Its TGI is 28.4 µM.

Question: And the TGI [19]?
Answer: The TGI was 8.77 µM.

Question: What about the TGI [20] of the same compound?
Answer: The TGI was 46.4 µM.

Question: What about the TGI [21] of the same compound?
Answer: The TGI was 29.8 µM.

Question: And the TGI [22]?
Answer: The TGI was 34.4 µM.

Question: And the TGI [23]?
Answer: Its TGI is 19.4 µM.

Question: And the TGI [24]?
Answer: Its TGI is 11.6 µM.

Question: And the TGI [25]?
Answer: The TGI was 57.7 µM.

Question: And the TGI [26]?
Answer: The TGI was 39.1 µM.

Question: And the TGI [27]?
Answer: Its TGI is 7.59 µM.

Question: And the TGI [28]?
Answer: Its TGI is 23.3 µM.

Question: What about the TGI [29] of the same compound?
Answer: The TGI was 37.7 µM.

Question: What about the TGI [30] of the same compound?
Answer: Its TGI is 33.1 µM.

Question: And the TGI [31]?
Answer: The TGI was 38.9 µM.

Question: And the TGI [32]?
Answer: The TGI was 17.2 µM.

Question: What about the TGI [33] of the same compound?
Answer: The TGI was 42.8 µM.

Question: And the TGI [34]?
Answer: Its TGI is 30 µM.

Question: And the TGI [35]?
Answer: The TGI was 39.6 µM.

Question: And the TGI [36]?
Answer: Its TGI is 32.2 µM.

Question: And the TGI [37]?
Answer: Its TGI is 37 µM.

Question: What about the TGI [38] of the same compound?
Answer: Its TGI is 19.2 µM.

Question: And the TGI [39]?
Answer: Its TGI is 17 µM.

Question: What about the TGI [40] of the same compound?
Answer: Its TGI is 62 µM.

Question: What about the TGI [41] of the same compound?
Answer: Its TGI is 29.5 µM.

Question: And the TGI [42]?
Answer: The TGI was 90.6 µM.

Question: What about the TGI [43] of the same compound?
Answer: Its TGI is 33.2 µM.

Question: What about the TGI [44] of the same compound?
Answer: Its TGI is 3.41 µM.

Question: And the TGI [45]?
Answer: Its TGI is 29.6 µM.

Question: And the TGI [46]?
Answer: Its TGI is 28.4 µM.

Question: And the TGI [47]?
Answer: The TGI was over 100 µM.

Question: What about the TGI [48] of the same compound?
Answer: The TGI was 36.6 µM.

Question: What about the TGI [49] of the same compound?
Answer: The TGI was 94.2 µM.

Question: What about the TGI [50] of the same compound?
Answer: Its TGI is 35 µM.

Question: And the TGI [51]?
Answer: The TGI was 37.4 µM.

Question: What about the TGI [52] of the same compound?
Answer: Its TGI is 71.4 µM.

Question: And the TGI [53]?
Answer: The TGI was 40.9 µM.

Question: What about the TGI [54] of the same compound?
Answer: Its TGI is 31.9 µM.

Question: What about the TGI [55] of the same compound?
Answer: The TGI was 55.3 µM.

Question: What about the TGI [56] of the same compound?
Answer: The TGI was over 86.3 µM.

Question: What about the TGI [57] of the same compound?
Answer: Its TGI is 30.7 µM.

Question: And the TGI [58]?
Answer: The TGI was 22 µM.
